In the kinase profiling compilation of Christmann-Franck et al. (2016):

Key:
Experiment in all cases: split-luciferase competition binding
AKT1 (human) = AKT1 (human) (UniProt P31749); details: compound 10.0 µM
AKT2 (human) = AKT2 (human) (UniProt P31751); details: compound 10.0 µM
AKT3 (human) = AKT3 (human) (UniProt Q9Y243); details: compound 10.0 µM
AURKA (human) = AURKA (human) (UniProt O14965); details: compound 10.0 µM
AURKB (human) = AURKB (human) (UniProt Q96GD4); details: compound 10.0 µM
AURKC (human) = AURKC (human) (UniProt Q9UQB9); details: compound 10.0 µM
DMPK (human) = DMPK (human) (UniProt Q09013); details: compound 10.0 µM
PDPK1 (human) = PDPK1 (human) (UniProt O15530); details: compound 10.0 µM
PKN1 (human) = PKN1 (human) (UniProt Q16512); details: compound 10.0 µM
PRKACA (mouse) = details: compound 10.0 µM; accession and sequence are those of the human protein
PRKACB (human) = PRKACB (human) (UniProt P22694); details: compound 10.0 µM
PRKCD (human) = PRKCD (human) (UniProt Q05655); details: compound 10.0 µM
PRKCE (human) = PRKCE (human) (UniProt Q02156); details: compound 10.0 µM
PRKCG (human) = PRKCG (human) (UniProt P05129); details: compound 10.0 µM
PRKCH (human) = PRKCH (human) (UniProt P24723); details: compound 10.0 µM
PRKCI (human) = PRKCI (human) (UniProt P41743); details: compound 10.0 µM
PRKCQ (human) = PRKCQ (human) (UniProt Q04759); details: compound 10.0 µM
PRKX (human) = PRKX (human) (UniProt P51817); details: compound 10.0 µM
RPS6KA1 KD1 (human) = RPS6KA1 KD1 (human) (UniProt Q15418); details: compound 10.0 µM
RPS6KA2 KD1 (human) = RPS6KA2 KD1 (human) (UniProt Q15349); details: compound 10.0 µM
RPS6KA3 KD1 (human) = RPS6KA3 KD1 (human) (UniProt P51812); details: compound 10.0 µM
RPS6KA4 KD1 (human) = RPS6KA4 KD1 (human) (UniProt O75676); details: compound 10.0 µM
RPS6KA5 KD1 (human) = RPS6KA5 KD1 (human) (UniProt O75582); details: compound 10.0 µM
RPS6KA6 KD1 (human) = RPS6KA6 KD1 (human) (UniProt Q9UK32); details: compound 10.0 µM
SGK3 (human) = SGK3 (human) (UniProt Q96BR1); details: compound 10.0 µM
STK32B (human) = STK32B (human) (UniProt Q9NY57); details: compound 10.0 µM
SGK2 (human) = SGK2 (human) (UniProt Q9HBY8); details: compound 10.0 µM
Sequence of SGK2 (human) (Q9HBY8 whole entry, looked up): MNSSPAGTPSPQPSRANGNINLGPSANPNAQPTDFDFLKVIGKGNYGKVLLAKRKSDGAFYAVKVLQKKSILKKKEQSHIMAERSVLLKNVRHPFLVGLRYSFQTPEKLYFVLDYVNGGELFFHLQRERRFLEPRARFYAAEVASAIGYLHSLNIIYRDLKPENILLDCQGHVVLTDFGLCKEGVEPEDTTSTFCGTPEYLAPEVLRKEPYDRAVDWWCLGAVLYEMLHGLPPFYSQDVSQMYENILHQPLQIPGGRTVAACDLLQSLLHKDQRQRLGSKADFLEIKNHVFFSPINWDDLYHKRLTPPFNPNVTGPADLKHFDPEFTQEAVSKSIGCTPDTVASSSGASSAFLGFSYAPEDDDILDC

Sequence of PKN1 (human) (Q16512 whole entry, looked up): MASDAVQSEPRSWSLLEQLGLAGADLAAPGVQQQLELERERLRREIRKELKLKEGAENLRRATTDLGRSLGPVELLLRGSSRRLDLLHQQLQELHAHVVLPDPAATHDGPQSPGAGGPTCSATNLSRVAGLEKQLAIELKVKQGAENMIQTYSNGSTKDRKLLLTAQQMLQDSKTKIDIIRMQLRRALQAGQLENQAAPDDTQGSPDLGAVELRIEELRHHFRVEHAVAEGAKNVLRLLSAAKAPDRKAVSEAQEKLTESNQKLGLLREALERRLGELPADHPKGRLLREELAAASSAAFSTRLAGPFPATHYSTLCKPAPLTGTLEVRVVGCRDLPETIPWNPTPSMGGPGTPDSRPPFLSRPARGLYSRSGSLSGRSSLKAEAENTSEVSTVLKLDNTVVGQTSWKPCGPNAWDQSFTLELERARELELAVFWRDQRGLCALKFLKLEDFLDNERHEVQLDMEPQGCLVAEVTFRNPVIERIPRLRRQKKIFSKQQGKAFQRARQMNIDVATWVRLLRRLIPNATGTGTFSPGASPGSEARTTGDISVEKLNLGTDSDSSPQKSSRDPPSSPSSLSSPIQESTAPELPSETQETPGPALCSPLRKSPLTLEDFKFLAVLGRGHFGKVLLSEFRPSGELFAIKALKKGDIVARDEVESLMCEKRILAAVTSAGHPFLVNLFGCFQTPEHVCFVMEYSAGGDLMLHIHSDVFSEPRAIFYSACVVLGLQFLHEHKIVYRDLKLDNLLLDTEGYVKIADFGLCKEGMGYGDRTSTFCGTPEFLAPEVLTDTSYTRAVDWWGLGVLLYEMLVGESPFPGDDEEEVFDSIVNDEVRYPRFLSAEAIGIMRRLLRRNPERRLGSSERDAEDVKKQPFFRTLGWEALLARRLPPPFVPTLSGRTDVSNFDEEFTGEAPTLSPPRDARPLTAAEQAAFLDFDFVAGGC
Sequence of AURKA (human) (O14965 whole entry, looked up): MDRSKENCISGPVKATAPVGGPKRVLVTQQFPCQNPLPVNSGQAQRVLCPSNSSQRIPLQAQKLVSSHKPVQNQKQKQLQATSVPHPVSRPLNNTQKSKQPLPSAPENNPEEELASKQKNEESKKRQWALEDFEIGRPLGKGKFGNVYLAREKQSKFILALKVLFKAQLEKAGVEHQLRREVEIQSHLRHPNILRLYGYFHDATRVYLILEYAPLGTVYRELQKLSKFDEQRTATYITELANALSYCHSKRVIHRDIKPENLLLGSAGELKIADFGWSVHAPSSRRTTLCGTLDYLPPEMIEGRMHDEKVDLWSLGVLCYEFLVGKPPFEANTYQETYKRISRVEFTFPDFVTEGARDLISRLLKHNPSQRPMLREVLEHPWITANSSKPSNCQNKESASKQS
Sequence of PRKCE (human) (Q02156 whole entry, looked up): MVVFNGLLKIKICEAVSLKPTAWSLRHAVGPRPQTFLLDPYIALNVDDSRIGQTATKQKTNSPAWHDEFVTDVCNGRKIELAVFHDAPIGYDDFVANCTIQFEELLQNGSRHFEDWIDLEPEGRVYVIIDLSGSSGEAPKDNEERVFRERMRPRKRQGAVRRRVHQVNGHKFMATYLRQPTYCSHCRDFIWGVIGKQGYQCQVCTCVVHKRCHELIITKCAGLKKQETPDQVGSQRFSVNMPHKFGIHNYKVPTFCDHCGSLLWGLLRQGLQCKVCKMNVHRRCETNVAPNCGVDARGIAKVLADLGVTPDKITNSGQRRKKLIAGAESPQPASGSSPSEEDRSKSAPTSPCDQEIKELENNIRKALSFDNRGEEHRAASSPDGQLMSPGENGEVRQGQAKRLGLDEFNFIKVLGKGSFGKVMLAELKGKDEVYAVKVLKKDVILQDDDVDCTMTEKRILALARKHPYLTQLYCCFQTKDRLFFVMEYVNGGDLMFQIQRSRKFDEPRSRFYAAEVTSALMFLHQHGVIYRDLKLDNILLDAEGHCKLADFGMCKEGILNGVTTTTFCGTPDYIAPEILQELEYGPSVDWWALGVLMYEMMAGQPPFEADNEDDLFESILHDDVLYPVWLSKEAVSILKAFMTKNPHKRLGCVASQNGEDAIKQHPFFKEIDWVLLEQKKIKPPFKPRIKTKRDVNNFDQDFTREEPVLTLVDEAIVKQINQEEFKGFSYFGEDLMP
Sequence of AKT3 (human) (Q9Y243 whole entry, looked up): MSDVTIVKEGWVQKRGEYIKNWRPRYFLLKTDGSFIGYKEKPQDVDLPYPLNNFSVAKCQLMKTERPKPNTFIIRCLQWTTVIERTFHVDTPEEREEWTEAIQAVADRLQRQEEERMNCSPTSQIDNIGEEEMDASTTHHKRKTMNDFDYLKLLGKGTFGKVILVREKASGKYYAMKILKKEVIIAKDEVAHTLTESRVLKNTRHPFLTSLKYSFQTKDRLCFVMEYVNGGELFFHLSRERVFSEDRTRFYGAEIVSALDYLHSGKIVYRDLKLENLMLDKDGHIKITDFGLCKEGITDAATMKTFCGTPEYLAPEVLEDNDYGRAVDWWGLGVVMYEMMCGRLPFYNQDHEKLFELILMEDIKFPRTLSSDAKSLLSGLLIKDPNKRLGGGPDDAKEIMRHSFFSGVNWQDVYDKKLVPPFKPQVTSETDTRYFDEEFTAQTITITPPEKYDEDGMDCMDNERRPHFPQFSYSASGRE
Sequence of AURKC (human) (Q9UQB9 whole entry, looked up): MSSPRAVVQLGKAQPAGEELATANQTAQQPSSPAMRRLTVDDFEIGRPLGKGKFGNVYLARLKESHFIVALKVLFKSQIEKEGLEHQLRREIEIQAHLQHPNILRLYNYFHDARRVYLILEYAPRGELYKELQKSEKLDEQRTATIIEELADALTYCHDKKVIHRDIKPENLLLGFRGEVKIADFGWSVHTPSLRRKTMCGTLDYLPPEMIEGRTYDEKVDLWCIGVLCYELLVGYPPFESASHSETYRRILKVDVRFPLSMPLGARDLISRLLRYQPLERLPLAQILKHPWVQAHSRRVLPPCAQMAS
Sequence of STK32B (human) (Q9NY57 whole entry, looked up): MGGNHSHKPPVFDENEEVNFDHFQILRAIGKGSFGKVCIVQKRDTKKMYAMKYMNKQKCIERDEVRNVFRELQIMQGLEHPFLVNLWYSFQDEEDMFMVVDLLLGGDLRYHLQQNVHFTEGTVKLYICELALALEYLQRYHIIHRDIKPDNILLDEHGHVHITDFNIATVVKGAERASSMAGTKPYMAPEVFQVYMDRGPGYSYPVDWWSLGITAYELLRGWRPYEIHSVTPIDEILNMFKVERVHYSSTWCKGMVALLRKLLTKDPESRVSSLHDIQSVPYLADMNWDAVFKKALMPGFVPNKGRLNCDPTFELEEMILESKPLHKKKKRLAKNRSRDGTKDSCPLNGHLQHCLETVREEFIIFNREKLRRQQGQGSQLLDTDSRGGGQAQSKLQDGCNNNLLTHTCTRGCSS
Sequence of AKT1 (human) (P31749 whole entry, looked up): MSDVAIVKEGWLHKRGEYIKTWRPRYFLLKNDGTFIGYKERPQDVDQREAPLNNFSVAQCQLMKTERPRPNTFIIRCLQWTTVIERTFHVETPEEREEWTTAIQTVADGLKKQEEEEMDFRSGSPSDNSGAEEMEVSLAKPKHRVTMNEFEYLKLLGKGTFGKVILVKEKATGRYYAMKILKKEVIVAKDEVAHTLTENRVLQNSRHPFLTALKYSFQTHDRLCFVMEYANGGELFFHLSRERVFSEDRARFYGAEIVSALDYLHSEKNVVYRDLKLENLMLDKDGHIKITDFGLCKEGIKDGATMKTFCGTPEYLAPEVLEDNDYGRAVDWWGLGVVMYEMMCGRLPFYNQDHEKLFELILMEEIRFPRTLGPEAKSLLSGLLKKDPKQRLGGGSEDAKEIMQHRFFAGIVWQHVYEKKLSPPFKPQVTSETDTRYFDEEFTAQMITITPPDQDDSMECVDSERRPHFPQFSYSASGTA

Compound | inhibition (AKT1 (human)) [%] | inhibition (AKT2 (human)) [%] | inhibition (AKT3 (human)) [%] | inhibition (AURKA (human)) [%] | inhibition (AURKB (human)) [%] | inhibition (AURKC (human)) [%] | inhibition (DMPK (human)) [%] | inhibition (PDPK1 (human)) [%] | inhibition (PKN1 (human)) [%] | inhibition (PRKACB (human)) [%] | inhibition (PRKCD (human)) [%] | inhibition (PRKCE (human)) [%] | inhibition (PRKCH (human)) [%] | inhibition (PRKCI (human)) [%] | inhibition (PRKCQ (human)) [%] | inhibition (PRKX (human)) [%] | inhibition (RPS6KA1 KD1 (human)) [%] | inhibition (RPS6KA2 KD1 (human)) [%] | inhibition (RPS6KA4 KD1 (human)) [%] | inhibition (RPS6KA5 KD1 (human)) [%] | also measured
O=S(=O)(NCCNC/C=C/c1ccc(Br)cc1)c1cccc2cnccc12 | 21 | 0 | 15 | 0 | 2 | 12 | 0 | 0 | 0 | 75 | 10 | 9 | 34 | 80 | 40 | 87 | 0 | 0 | 10 | 0 | inhibition (PRKACA (mouse)): 67%; inhibition (PRKCG (human)): 0%; inhibition (RPS6KA3 KD1 (human)): 5%; inhibition (RPS6KA6 KD1 (human)): 5%; inhibition (SGK3 (human)): 41%; inhibition (STK32B (human)): 17%
Cn1cc(C2=C(c3cn(CCCSC(=N)N)c4ccccc34)C(=O)NC2=O)c2ccccc21 | 62 | 28 | 78 | 2 | 13 | 10 | 76 | 2 | 36 | 73 | 91 | 71 | 81 | 63 | 93 | 32 | 71 | 89 | 56 | 64 | inhibition (PRKACA (mouse)): 62%; inhibition (RPS6KA3 KD1 (human)): 87%; inhibition (RPS6KA6 KD1 (human)): 80%; inhibition (SGK2 (human)): 34%; inhibition (SGK3 (human)): 65%; inhibition (STK32B (human)): 63%
COc1cc2c(Nc3ccc(NC(=O)c4ccccc4)cc3)ncnc2cc1OCCCN1CCOCC1 | 9 | 0 | 0 | 13 | 55 | 66 | 9 | 0 | 2 | 0 | 0 | 0 | 0 | 0 | 0 | 7 | 5 | 2 | 0 | 0 | inhibition (PRKACA (mouse)): 7%; inhibition (PRKCG (human)): 6%; inhibition (RPS6KA6 KD1 (human)): 3%; inhibition (SGK2 (human)): 0%; inhibition (SGK3 (human)): 0%; inhibition (STK32B (human)): 1%
Cc1ccc(-c2nn(C(C)(C)C)c3ncnc(N)c23)cc1 | 2 | 0 | 0 | 0 | 0 | 0 | 28 | 0 | 0 | 0 | 0 | 8 | 8 | 0 | 0 | 0 | 27 | 1 | 1 | 0 | inhibition (PRKCG (human)): 0%; inhibition (RPS6KA3 KD1 (human)): 8%; inhibition (RPS6KA6 KD1 (human)): 14%; inhibition (SGK2 (human)): 0%; inhibition (SGK3 (human)): 0%; inhibition (STK32B (human)): 58%
